Patent US20210253718A1, “FRIZZLED5 PROTEIN-BINDING AGENTS” (Modmab Therapeutics Corporation, priority 2016, published 2021)

Experiments:
RWP1 cells [1] = assay: Effect of anti-FZD5 Fabs on proliferation of pancreatic cancer cell lines (percent growth inhibition); format: cell-based, human; conditions: Fab 2 μg/ml
HPAFII cells = assay: as above; format: cell-based, human
Protocol: (§1) The effect of presently disclosed anti-FZD5 Fabs on proliferation of RNF43 loss-of-function mutant pancreatic cancer cell lines HPAFII, PATU8988S and ASPC-1; and on pancreatic cancer cell line RWP1, was tested at […] and 10 μg/ml.

PATU8988S cells = assay: as above; format: cell-based, human; conditions: Fab 10 μg/ml
Protocol: as §1

ASPC-1 cells = assay: as above; format: cell-based, human; conditions: Fab 10 μg/ml
Protocol: as §1

RWP1 cells [2] = assay: as above; format: cell-based, human; conditions: Fab 10 μg/ml
Protocol: as §1

FZD10 CRD = target: T1, FZD10 CRD (Homo sapiens, UniProt Q9ULW2); assay: Immunofluorescence of anti-FZD5 Fab binding to CHO cells overexpressing Frizzled CRD; set-up: key: −: no binding; +: very weak binder; ++: weak binder; +++: good binder; ++++: very good binder
T1 construct: 30-156; GPI anchor signal (C); expressed in transfected cells; host or cells: CHO cells, lentiviral pLenti-puro
T1 sequence (Q9ULW2 30-156): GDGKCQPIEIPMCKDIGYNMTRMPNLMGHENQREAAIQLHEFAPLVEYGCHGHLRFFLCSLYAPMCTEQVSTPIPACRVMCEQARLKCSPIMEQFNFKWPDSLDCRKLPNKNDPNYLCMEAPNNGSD
Protocol: (§2) Plasmids: pLCKO lentiviral vector used for knockout (TKO) library construction and expression of individual gRNAs was constructed as described previously (Hart et al., 2015). Briefly, single guide RNA (sgRNA) scaffold was amplified from px330 (Addgene 42230) and cloned into pLKO.TRC005 lentiviral vector (Broad Institute, Cambridge, Mass.) using AgeI/EcoRI restriction sites. BfuAI sites were added at the 5′ end of the sgRNA scaffold for cloning the TKO library or individual gRNA target sequences. Lenti Cas9-2A-BsdR vector used to generate Cas9 stable expression cell lines was constructed as described previously (Hart et al., 2015). Briefly, lentiCRISPR pXPR_001 (Addgene 49535) was modified through removal of the sgRNA scaffold region through NdeI/EcoRI digest and blunt ends generation using Large Klenow Fragment (NEB). 2A-puro was replaced with 2A-BsdR by PCR using the NheI/MluI sites. Each of the 10 human Frizzled cysteine rich domains (CRDs) were cloned into the lentiviral expression plasmid pLenti-puro in the following cassette: FZD_CRD-MYC-GPI.
(§3) To confirm that the FZD5-WNT7B circuit is not driven simply by expression and rule out the possibility of a disconnect between RNA and protein levels for the Wnt receptors in HPAF-II cells, a panel of recombinant Fabs were generated, alternatively referred to herein as ‘Frizzled profiler’, that can detect and discriminate all but one of the ten Frizzled receptors. […] To characterize the binding specificity of these Fabs on cells, a panel of 10 CHO cell lines was generated, each expressing the CRD domain of a different myc-tagged Frizzled family member anchored at the plasma membrane through a GPI anchor (CHO-myc-FZDGPI). Despite the high sequence identity between Frizzled family members (FIG. 7A, FIG. 7B), selective Fabs were identified for FZD4, FZD5, FZD6 and FZD10 as assessed by immunofluorescence and flow cytometry (FIG. 7D and FIG. 8). […] The FZD8 CRD is most homologous to that of FZD5 (FIG. 7B). These Fabs can be used to discriminate expression of FZD1, FZD2, FZD4, FZD5, FZD6, FZD7, FZD8, FZD9 and FZD10 (FIG. 7D and FIG. 8). The ‘Frizzled profiler’ therefore consists of 10 different Fabs that can be used to discriminate expression of 9 different Frizzled family members. The Frizzled profiler was then used to confirm that HPAF-II cells express FZD1, FZD5, FZD6 and possibly FZD8 (FIG. 7E).
(§4) The binding of anti-FZD5 Fabs to cell surface-expressed Frizzled protein was further determined for each member of the Frizzled family via flow cytometry and immunofluorescence analysis of a panel of 10 CHO cell lines, each ectopically over-expressing the extracellular cysteine-rich domain (CRD) of a different Frizzled protein family member.

FZD9 CRD = target: T2, FZD9 CRD (Homo sapiens, UniProt O00144); assay: as above; set-up: key: −: no binding; +: very weak binder; ++: weak binder; +++: good binder; ++++: very good binder
T2 construct: G35-A161; GPI anchor signal (C); expressed in transfected cells; host or cells: CHO cells, lentiviral pLenti-puro
T2 sequence (O00144 35-161): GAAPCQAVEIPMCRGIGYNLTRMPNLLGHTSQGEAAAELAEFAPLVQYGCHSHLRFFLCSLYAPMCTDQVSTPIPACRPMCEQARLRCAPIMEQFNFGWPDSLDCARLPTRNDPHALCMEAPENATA
Protocol: as §2, §3, §4

FZD1 CRD = target: T3, FZD1 CRD (Homo sapiens, UniProt Q9UP38); assay: as above; set-up: key: −: no binding; +: very weak binder; ++: weak binder; +++: good binder; ++++: very good binder
T3 construct: D112-P238; GPI anchor signal (C); expressed in transfected cells; host or cells: CHO cells, lentiviral pLenti-puro
Protocol: as §2, §3, §4

FZD7 CRD = target: T4, FZD7 CRD (Homo sapiens, UniProt O75084); assay: as above; set-up: key: −: no binding; +: very weak binder; ++: weak binder; +++: good binder; ++++: very good binder
T4 construct: D45-S169; GPI anchor signal (C); expressed in transfected cells; host or cells: CHO cells, lentiviral pLenti-puro
Protocol: as §2, §3, §4

FZD5 CRD = target: T5, FZD5 CRD (Homo sapiens, UniProt Q13467); assay: as above; set-up: key: −: no binding; +: very weak binder; ++: weak binder; +++: good binder; ++++: very good binder
T5 construct: K29-T156; GPI anchor signal (C); expressed in transfected cells; host or cells: CHO cells, lentiviral pLenti-puro
T5 sequence (Q13467 29-156): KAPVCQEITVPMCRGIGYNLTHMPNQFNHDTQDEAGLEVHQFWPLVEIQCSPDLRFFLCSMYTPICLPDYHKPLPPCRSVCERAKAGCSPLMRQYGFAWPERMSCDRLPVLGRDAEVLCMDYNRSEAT
Protocol: as §2, §3, §4

FZD4 CRD = target: T6, FZD4 CRD (Homo sapiens, UniProt Q9ULV1); assay: as above; set-up: key: −: no binding; +: very weak binder; ++: weak binder; +++: good binder; ++++: very good binder
T6 construct: E42-V167; GPI anchor signal (C); expressed in transfected cells; host or cells: CHO cells, lentiviral pLenti-puro
T6 sequence (Q9ULV1 42-167): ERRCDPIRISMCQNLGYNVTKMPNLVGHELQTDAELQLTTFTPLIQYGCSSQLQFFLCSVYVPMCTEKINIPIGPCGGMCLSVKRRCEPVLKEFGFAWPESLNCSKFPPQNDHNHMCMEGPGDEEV
Protocol: as §2, §3, §4

For “Fab-2931: anti-FZD5 Fab with antibody variable region Fv-2931; CDR SEQ ID NOs: 35, 36, 70, 102, 146, 176 (CDR 1 QSVSSA; CDR 2 SAS; CDR 3 QQSSYSLIT; CDR 4 GFNLSYSS; CDR 5 ISPYSGST; CDR 6 ARGSYWYVGGGWWVSGHGGMDY)”, the “percent growth inhibition, RWP1 2 μg/ml” value (RWP1 cells [1]) was 15.35%, the “percent growth inhibition, HPAFII 2 μg/ml” value (HPAFII cells; Fab 2 μg/ml) was −19.38% and the “percent growth inhibition, HPAFII 10 μg/ml” value (HPAFII cells; Fab 10 μg/ml) was 11.37%. The “percent growth inhibition, PATU8988s 10 μg/ml” value (PATU8988S cells) was −17.27%, the “percent growth inhibition, ASPC-1 10 μg/ml” value (ASPC-1 cells) was 39.20% and the “percent growth inhibition, RWP1 10 μg/ml” value (RWP1 cells [2]) was 18.70%. The “Immunofluorescence binding, Frizzled CRD overexpressed on CHO cells: FZD10” value (FZD10 CRD) was “−”, the “Immunofluorescence binding, Frizzled CRD overexpressed on CHO cells: FZD9” value (FZD9 CRD) was “−” and the “Immunofluorescence binding, Frizzled CRD overexpressed on CHO cells: FZD1” value (FZD1 CRD) was “−”. For the same substance, the “Immunofluorescence binding, Frizzled CRD overexpressed on CHO cells: FZD7” value (FZD7 CRD) was “+”, the “Immunofluorescence binding, Frizzled CRD overexpressed on CHO cells: FZD5” value (FZD5 CRD) was “++++” and the “Immunofluorescence binding, Frizzled CRD overexpressed on CHO cells: FZD4” value (FZD4 CRD) was “−”.
